Assay in all cases: NCI anticancer screen, dose series, 48 h
The test system of assay [1] is MDA-N.
For assay [2], the system named is UACC-62.
Assay [3] deals with OVCAR-5.
Assay [4] relates to OVCAR-4.
The test system of assay [5] is UACC-257.
Assay [6] has as its system NCI-H522.
The subject of assay [7] is HCT-116.
Assay [8] deals with TK-10.
The subject of assay [9] is SNB-19.
For assay [10], the system named is U-251.
The subject of assay [11] is OVCAR-8.
For assay [12], the system named is HOP-92.
Assay [13] deals with NCI-H23.
Assay [14] has as its system SNB-75.
Assay [15] has as its system HCT-15.
Assay [16] concerns SK-MEL-28.
For assay [17], the system named is UO-31.
Assay [18] concerns DU-145.
The test system of assay [19] is A498.

These results are taken from ChEMBL document CHEMBL1201862, “PubChem BioAssay data set” (2004).

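Each compound was tested at five concentrations against cells in 96-well plates for 48 hours. GI50 = concentration required for 50% inhibition of growth.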 Calls of active or inactive are those of the source. No stated cut-off is given here; in the data, active = GI50 up to about 1.1 µM and inactive = higher.

As to `CC(=O)C(C(c1ccccc1)N1CCOCC1)N1CCOCC1` (stereo not given), the GI50 in assay [1] was > 100 µM (inactive); in assay [2], > 100 µM (inactive); in assay [3], > 100 µM (inactive); in assay [4], > 100 µM (inactive); in [5], 18.5 µM (inactive); in assay [6], > 100 µM (inactive). In addition, the GI50 in assay [7] was > 100 µM (inactive); in assay [8], 22.6 µM (inactive); in assay [9], > 100 µM (inactive); in assay [10], > 100 µM (inactive); in [11] it was > 100 µM (inactive); in assay [12], > 100 µM (inactive). Also, the GI50 in assay [13] is > 100 µM (inactive); in [14] it was > 100 µM (inactive); in [15] it was greater than 100 µM; in assay [16], > 100 µM (inactive); in [17] it was > 100 µM (inactive); in assay [18], > 100 µM (inactive). In addition, the GI50 in assay [19] is > 100 µM (inactive).
In the case of `C=C1CC[C@H](O)C(C)(C)[C@@H]1CC/C(C)=C/CC/C=C(\C)CC/C=C(\C)CCC=C(C)C`, the GI50 is > 100 µM (inactive) in [1]; > 100 µM (inactive) in [2]; > 100 µM (inactive) in [3]; > 100 µM (inactive) in [4]; > 100 µM (inactive) in assay [5]; 29 µM (inactive) in [6]. Also, the GI50 in [7] was 43.7 µM (inactive); in [8], > 100 µM (inactive); in [9], > 100 µM (inactive); in [10] it was > 100 µM (inactive); in assay [11], 57.8 µM (inactive); in [12], > 100 µM (inactive). The GI50 in assay [13] was 45.7 µM (inactive); in assay [14] it was > 100 µM (inactive); in [15], 87.3 µM; in [16], > 100 µM (inactive); in assay [17], > 100 µM (inactive); in assay [18], > 100 µM (inactive). For the same compound, the GI50 in assay [19] was > 100 µM (inactive).
With `CCC(C)C1NC(=O)C(NC(=O)c2c3nc4c(C(=O)NC5C(=O)NC(C(C)CC)C(=O)N6CCCC6C(=O)N(C)CC(=O)N(C)C(C(C)C)C(=O)OC5C)ccc(C)c4oc-3c(C)c(=O)c2O)C(C)OC(=O)C(C(C)C)N(C)C(=O)CN(C)C(=O)C2CCCN2C1=O` (stereo not given), the GI50 in assay [1] was 4.21 µM (inactive); in [2], 1.14 µM (inactive); in assay [3], 11.6 µM (inactive); in assay [4] it was 14.3 µM (inactive); in [5] it was 3.3 µM (inactive); in [6], 0.295 µM (active). Moreover, the GI50 is 0.55 µM (active) in [7]; 10.2 µM (inactive) in assay [8]; 11.5 µM (inactive) in [9]; 1.05 µM (active) in assay [10]; 1.6 µM (inactive) in [11]; 6.76 µM (inactive) in assay [12]. Further, the GI50 in [13] is 5.41 µM (inactive); in assay [14], 2.62 µM (inactive); in assay [15], 16.6 µM; in [16], 5.24 µM (inactive); in [17] it was 10.4 µM (inactive); in assay [18], 5.78 µM (inactive). In assay [19], the GI50 was 2.84 µM (inactive).
Regarding `Cc1ccc2c(c1)C(=O)c1[nH]c3ccc(F)cc3c1CO2`, the GI50 was > 100 µM (inactive) in assay [1]; 24.4 µM (inactive) in assay [2]; > 100 µM (inactive) in assay [3]; 15.3 µM (inactive) in assay [4]; > 100 µM (inactive) in [5]; 36.6 µM (inactive) in assay [6]. For the same compound, the GI50 in assay [7] was 17.8 µM (inactive); in [8], 31.8 µM (inactive); in assay [9] it was 14.3 µM (inactive); in assay [10], 18.5 µM (inactive); in assay [11] it was 15.8 µM (inactive); in assay [12], 81.8 µM (inactive). In addition, the GI50 in [13] is 25.2 µM (inactive); in [14] it was 10.3 µM (inactive); in assay [15], greater than 100 µM; in assay [16] it was 97.1 µM (inactive); in assay [17], > 100 µM (inactive); in assay [18], > 100 µM (inactive). Besides, the GI50 in assay [19] is 79.4 µM (inactive).
Take `C=C(C)[C@@H](O)[C@H](O)C[C@H](C)C1CC[C@]2(C)C1=CC[C@@H]1[C@@]3(C)CC[C@@H](OC(C)=O)C(C)(C)[C@@H]3C[C@@H](OC3OC(COC(C)=O)C(O)C(O)C3O)[C@]12C` (stereo not given in full): the GI50 in [1] was 2.81 µM (inactive); in assay [2], 1.9 µM (inactive); in assay [3], 1.87 µM (inactive); in assay [4], 2.96 µM (inactive); in [5], 2.89 µM (inactive); in assay [6], 1.67 µM (inactive). Besides, the GI50 was 2.27 µM (inactive) in assay [7]; 3.39 µM (inactive) in assay [8]; 3.71 µM (inactive) in assay [9]; 2.32 µM (inactive) in assay [10]; 4.04 µM (inactive) in [11]; 2.37 µM (inactive) in [12]. Besides, the GI50 was 4.06 µM (inactive) in assay [13]; 2.45 µM (inactive) in [14]; 3.37 µM in assay [15]; 2.54 µM (inactive) in assay [16]; 3.48 µM (inactive) in [17]; 3.4 µM (inactive) in assay [18]. In assay [19], the GI50 was 3.36 µM (inactive).
For the compound `O=c1[nH]c(Nc2nc3ccccc3[nH]2)nc(O)c1-c1ccccc1`, the GI50 in assay [1], in assay [2], in assay [3], in assay [4], in [5] and in assay [6] was > 100 µM (inactive) in each case. Besides, the GI50 in assay [7] is > 100 µM (inactive); in assay [8], > 100 µM (inactive); in [9], > 100 µM (inactive); in assay [10], 82.2 µM (inactive); in [11], > 100 µM (inactive); in [12], > 100 µM (inactive). Also, the GI50 is > 100 µM (inactive) in [13]; > 100 µM (inactive) in [14]; greater than 100 µM in [15]; > 100 µM (inactive) in assay [16]; > 100 µM (inactive) in [17]; > 100 µM (inactive) in assay [18]. Besides, the GI50 in [19] was > 100 µM (inactive).
As for `Nc1ncc(Cl)c(NCC2(CO)CC(CCc3ccccc3)C2)n1` (stereo not given), the GI50 in [1] was > 100 µM (inactive); in assay [2] it was > 100 µM (inactive); in assay [3] it was > 100 µM (inactive); in assay [4] it was > 100 µM (inactive); in assay [5], > 100 µM (inactive); in assay [6], > 76.2 µM (inactive). Also, the GI50 is 3.7 µM (inactive) in assay [7]; 14.4 µM (inactive) in assay [8]; > 100 µM (inactive) in assay [9]; 44.6 µM (inactive) in assay [10]; 44 µM (inactive) in [11]; 5.69 µM (inactive) in assay [12]. Further, the GI50 is > 100 µM (inactive) in assay [13]; 46.2 µM (inactive) in assay [14]; greater than 100 µM in assay [15]; > 100 µM (inactive) in assay [16]; > 100 µM (inactive) in assay [17]; > 100 µM (inactive) in assay [18]. For the same compound, the GI50 in [19] is > 100 µM (inactive).
Turning to `C/C=C1/CN2CCc3c([nH]c4ccccc34)[C@@H]2C[C@@H]1Cc1nccc2c1[nH]c1cc(O)ccc12`, the GI50 was 2.01 µM (inactive) in assay [1]; 2.07 µM (inactive) in [2]; 2.93 µM (inactive) in [3]; 1.57 µM (inactive) in [4]; 2.41 µM (inactive) in assay [5]; 1.89 µM (inactive) in assay [6]. Moreover, the GI50 is 1.67 µM (inactive) in assay [7]; 1.95 µM (inactive) in [8]; 2.26 µM (inactive) in [9]; 2.19 µM (inactive) in [10]; 1.9 µM (inactive) in assay [11]; 6.38 µM (inactive) in [12]. The GI50 was 2.1 µM (inactive) in assay [13]; 1.64 µM (inactive) in assay [14]; 2.9 µM in assay [15]; 1.92 µM (inactive) in assay [16]; 1.99 µM (inactive) in assay [17]; 2.07 µM (inactive) in assay [18]. Besides, in assay [19], the GI50 is 1.93 µM (inactive).
In the case of `CC1(C)C(CBr)=[N+]([O-])C(C)(C)N1O`, the GI50 in [1] was 3.99 µM (inactive); in assay [2] it was 7.59 µM (inactive); in assay [3] it was > 10 µM (inactive); in assay [4] it was 1.77 µM (inactive); in assay [5], 8.99 µM (inactive); in assay [6], 1.44 µM (inactive). Further, the GI50 in assay [7] was 2.12 µM (inactive); in [8], 5.5 µM (inactive); in assay [9], > 10 µM (inactive); in assay [10], > 10 µM (inactive); in [11] it was > 6.97 µM (inactive); in assay [12], 2.27 µM (inactive). Further, the GI50 in assay [13] is 3.59 µM (inactive); in [14], 3.17 µM (inactive); in assay [15] it was 2.55 µM; in [16] it was > 10 µM (inactive); in [17], > 10 µM (inactive); in [18], > 10 µM (inactive). Moreover, the GI50 in assay [19] was > 10 µM (inactive).
As to `O=[N+]([O-])c1ccc2[nH]nc(OCc3ccccc3Cl)c2c1`, the GI50 was > 100 µM (inactive) in assay [1]; 29.2 µM (inactive) in assay [2]; 52.6 µM (inactive) in assay [3]; 41.3 µM (inactive) in assay [4]; > 100 µM (inactive) in assay [5]; 17.1 µM (inactive) in [6]. Further, the GI50 in assay [7] was 27.4 µM (inactive); in assay [8] it was 29.9 µM (inactive); in assay [9], 34.7 µM (inactive); in [10], 28.3 µM (inactive); in assay [11] it was 27 µM (inactive); in assay [12] it was 20.5 µM (inactive). Moreover, the GI50 was 31.9 µM (inactive) in assay [13]; 81.5 µM (inactive) in assay [14]; 85.5 µM in [15]; > 100 µM (inactive) in [16]; > 10 µM (inactive) in [17]; 50.7 µM (inactive) in assay [18]. In addition, in [19], the GI50 is 37.5 µM (inactive).
